For assay [1], the target named is GABA B receptor (Rattus norvegicus, UniProt O88871+Q9Z0U4). The experiment in a line: In vitro binding affinity against Gamma-aminobutyric acid type B receptor in rat brain synaptic membranes at pH 7.4. The format is cell membranes.
For assay [2], the target named is GABA-A receptor; anion channel. Kind of assay: In vitro binding affinity against Gamma-aminobutyric acid A receptor in rat brain synaptic membranes at pH 7.1. The format is cell membranes.

Sequence of GABA B receptor (Q9Z0U4 whole entry): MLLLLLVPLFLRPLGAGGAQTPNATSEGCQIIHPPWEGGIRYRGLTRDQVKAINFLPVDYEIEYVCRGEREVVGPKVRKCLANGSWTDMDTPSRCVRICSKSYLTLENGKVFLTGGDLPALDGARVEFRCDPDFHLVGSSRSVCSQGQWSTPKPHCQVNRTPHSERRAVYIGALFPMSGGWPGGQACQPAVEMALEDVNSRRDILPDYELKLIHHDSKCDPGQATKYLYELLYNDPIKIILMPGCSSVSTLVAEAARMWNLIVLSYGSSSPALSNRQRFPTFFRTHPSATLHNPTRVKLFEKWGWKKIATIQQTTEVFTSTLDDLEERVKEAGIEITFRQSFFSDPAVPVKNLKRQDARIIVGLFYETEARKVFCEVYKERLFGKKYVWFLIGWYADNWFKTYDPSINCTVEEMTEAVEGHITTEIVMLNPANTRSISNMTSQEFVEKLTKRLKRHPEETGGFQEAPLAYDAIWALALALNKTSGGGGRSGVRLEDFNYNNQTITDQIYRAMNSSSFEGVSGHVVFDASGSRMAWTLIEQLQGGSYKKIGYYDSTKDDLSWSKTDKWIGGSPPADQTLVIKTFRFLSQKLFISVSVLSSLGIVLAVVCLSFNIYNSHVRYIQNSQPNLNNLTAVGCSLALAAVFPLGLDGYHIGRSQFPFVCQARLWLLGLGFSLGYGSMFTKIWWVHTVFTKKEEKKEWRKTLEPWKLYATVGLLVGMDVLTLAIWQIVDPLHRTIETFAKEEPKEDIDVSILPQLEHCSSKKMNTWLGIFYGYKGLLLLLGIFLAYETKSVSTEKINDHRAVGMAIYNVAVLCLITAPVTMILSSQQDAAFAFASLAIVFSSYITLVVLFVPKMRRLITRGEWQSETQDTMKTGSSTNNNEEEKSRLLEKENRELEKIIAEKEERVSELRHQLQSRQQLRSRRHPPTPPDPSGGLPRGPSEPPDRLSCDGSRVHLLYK
Sequence of GABA B receptor (O88871 whole entry): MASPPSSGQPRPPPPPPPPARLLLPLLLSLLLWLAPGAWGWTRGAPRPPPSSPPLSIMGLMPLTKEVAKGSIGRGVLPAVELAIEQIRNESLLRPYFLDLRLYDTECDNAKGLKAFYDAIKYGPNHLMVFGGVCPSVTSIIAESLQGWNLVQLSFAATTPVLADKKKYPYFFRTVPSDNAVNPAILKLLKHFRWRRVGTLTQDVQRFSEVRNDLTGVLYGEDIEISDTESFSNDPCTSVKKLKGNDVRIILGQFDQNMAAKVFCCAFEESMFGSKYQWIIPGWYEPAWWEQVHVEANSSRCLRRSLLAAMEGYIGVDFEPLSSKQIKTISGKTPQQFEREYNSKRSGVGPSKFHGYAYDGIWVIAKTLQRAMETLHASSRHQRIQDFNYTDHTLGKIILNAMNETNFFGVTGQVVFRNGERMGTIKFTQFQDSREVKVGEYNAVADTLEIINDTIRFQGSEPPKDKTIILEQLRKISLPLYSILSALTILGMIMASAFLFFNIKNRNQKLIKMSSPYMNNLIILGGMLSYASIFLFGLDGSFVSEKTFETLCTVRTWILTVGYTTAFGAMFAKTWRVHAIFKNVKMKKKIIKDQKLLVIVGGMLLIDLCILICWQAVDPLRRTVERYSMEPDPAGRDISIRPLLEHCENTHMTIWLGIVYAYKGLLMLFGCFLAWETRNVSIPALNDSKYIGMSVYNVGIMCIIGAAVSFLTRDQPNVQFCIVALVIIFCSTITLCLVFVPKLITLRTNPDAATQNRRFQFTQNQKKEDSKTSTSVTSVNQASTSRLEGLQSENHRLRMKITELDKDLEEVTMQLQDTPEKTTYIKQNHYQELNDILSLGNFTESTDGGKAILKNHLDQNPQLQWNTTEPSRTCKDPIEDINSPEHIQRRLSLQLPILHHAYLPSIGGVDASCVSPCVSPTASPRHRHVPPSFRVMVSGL

By IC50 is commonly meant the concentration that inhibits the measured activity by half. A high value points to weaker potency in that assay. In the case of `O=C(O)C[C@H]1CCNC1`, the IC50 in assay [1] was over 100000 nM; in assay [2], 70 nM.
On the same counts, the results for `O=C(O)CC1CCNC1` (racemic) are 14100 nM and 200 nM.
As to `O=C(O)C[C@@H]1CCNC1`, the IC50 in assay [1] came out at 7800 nM; in assay [2], 900 nM.

(Values after ChEMBL document CHEMBL1124969, “GABA agonists and uptake inhibitors. Synthesis, absolute stereochemistry, and enantioselectivity of (R)-(-)- and (S)-(+)-homo-beta-proline” (J Med Chem, 1990).)
